The record followed here is US9216973B2, “Insecticidal compounds” (Syngenta Participations AG, priority 2008, dated 2015).

The experiment relates to Spodoptera littoralis (Egyptian cotton leafworm). In words: Spodoptera littoralis cotton leaf disc spray test. The format is in vivo. The conditions noted are these: for pest or weed control at 200 ppm: foliar, 72 h, 200 ppm spray on cotton leaf discs, L1 larvae, mortality, feeding behavior, growth regulation 3 days after treatment; for effect on mortality, feeding behavior, or growth regulation: same protocol, 200 ppm. As for the experimental part:
This Example illustrates the insecticidal and acaricidal properties of compounds of formula (I). The tests were performed as follows:
Spodoptera littoralis (Egyptian cotton leafworm):
Cotton leaf discs were placed on agar in a 24-well microtiter plate and sprayed with test solutions at an application rate of 200 ppm. After drying, the leaf discs were infested with 5 L1 larvae. The samples were checked for mortality, feeding behavior, and growth regulation 3 days after treatment (DAT). The following compound gave at least 80% control of Spodoptera littoralis: A1, A2, A5, A6, A7, A8, A10, A11, A12, A13, A14, A15, A16, A17, A18, A19, A21, A22, A23, A24, A25, A30, A31, A32, A33, A34, A35, A39, A40, A41 A42, A43, A44, A45, A46, A47, A48, A49, A50, A51, A53, A54, A55, A59, A60, A61, A62. Heliothis virescens (Tobacco budworm): Eggs (0-24 h old) were placed in 24-well microtiter plate on artificial diet and treated with test solutions at an application rate of 200 ppm (concentration in well 18 ppm) by pipetting. After an incubation period of 4 days, samples were checked for egg mortality, larval mortality, and growth regulation. The following compound gave at least 80% control of Heliothis virescens: A1, A2, A3, A4, A5, A6, A7, A8, A10, A11, A12, A13, A14, A15, A16, A18, A19, A21, A22, A24, A25, A30, A31, A32, A33, A34, A35, A37, A38, A39, A40, A42, A43, A44, A45, A46, A47, A48, A49, A50, A51, A55, AA57, A58, A59, A60, A61, A62. Plutella xylostella (Diamond back moth): 24-well microtiter plate (MTP) with artificial diet was treated with test solutions at an application rate of 200 ppm (concentration in well 18 ppm) by pipetting. After drying, the MTP's were infested with L2 larvae (7-12 per well). After an incubation period of 6 days, samples were checked for larval mortality and growth regulation. The following compound gave at least 80% control of Plutella xylostella: A1, A2, A5, A6, A7, A8, A9, A10, A11, A12, A13, A14, A15, A16, A17, A18, A19, A20, A21, A22, A24, A25, A30, A31, A32, A33, A34, A35, A37, A38, A39, A40, A42, A43, A44, A45, A46, A47, A48, A49, A50, A51, A52, A53, A54, A55, A57, A58, A59, A60, A61, A62, B3. Diabrotica balteata (Corn root worm): A 24-well microtiter plate (MTP) with artificial diet was treated with test solutions at an application rate of 200 ppm (concentration in well 18 ppm) by pipetting. After drying, the MTP's were infested with L2 larvae (6-10 per well). After an incubation period of 5 days, samples were checked for larval mortality and growth regulation. The following compound gave at least 80% control of Diabrotica balteata: A1, A2, A5, A6, A7, A10, A11, A12, A13, A14, A15, A16, A17, A18, A19, A21, A22, A24, A25, A30, A31, A32, A33, A34, A35, A38, A39, A40, A42, A43, A44, A45, A46, A47, A48, A49, A50, A59, A60, A61, A62. Thrips tabaci (Onion thrips): Sunflower leaf discs were placed on agar in a 24-well microtiter plate and sprayed with test solutions at an application rate of 200 ppm. After drying, the leaf discs were infested with an […] population of mixed ages. After an incubation period of 7 days, samples were checked for mortality. The following compounds gave at least 80% control of Thrips tabaci: A1, A2, A5, A6, A7, A8, A10, A12, A13, A14, A15, A16, A17, A18, A19, A21, A24, A25, A30, A31, A32, A33, A34, A35, A39, A42, A43, A44, A45, A46, A47, A48, A49, A50, A51, A53, A54, A57, A58, A59, A60, A61, A62. Tetranychus urticae (Two-spotted spider mite): Bean leaf discs on agar in 24-well microtiter plates were sprayed with test solutions at an application rate of 200 ppm. After drying, the leaf discs are infested with mite populations of mixed ages. 8 days later, discs are checked for egg mortality, larval mortality, and adult mortality. […]

Regarding `Cc1cc(C2CC(c3cc(Cl)cc(Cl)c3)(C(F)(F)F)ON2C)ccc1C(=O)NC1C[S+]([O-])C1` (centres unmarked) [A18], the pest or weed control – broadly, the degree to which the test organism was suppressed or injured, in per cent – at 200 ppm is at least 80%. `Cc1cc(C2=NCC(c3cc(Cl)cc(Cl)c3)(C(F)(F)F)C2)ccc1C(=O)NC1C[S+]([O-])C1` (centres unmarked) [A48] yielded a pest or weed control at 200 ppm of at least 80%. `Cc1cc(N2CC(c3cc(Cl)cc(Cl)c3)(C(F)(F)F)OC2=O)ccc1C(=O)NC1C[S+]([O-])C1` (centres unmarked) [A10] had a pest or weed control at 200 ppm of at least 80%.

`Cc1cc(C2=NOC(c3cc(Cl)cc(Cl)c3)(C(F)(F)F)C2O)ccc1C(=O)NC1CS(=O)(=O)C1` (centres unmarked) [A51] had a pest or weed control at 200 ppm of at least 80%. In turn, `Cc1cc(C2CC(c3cc(Cl)cc(Cl)c3)(C(F)(F)F)ON2C)ccc1C(=O)NC1CSC1` (centres unmarked) [A21] registered a pest or weed control at 200 ppm of at least 80%. Same read-out and setting: then `Cc1cc(N2CC(c3cc(Cl)cc(Cl)c3)(C(F)(F)F)OC2=O)ccc1C(=O)NC1CSC1` (centres unmarked) [A11], with at least 80%; and `O=C(NC1CS(=O)(=O)C1)c1ccc(C2=NOC(c3cc(Cl)cc(Cl)c3)(C(F)(F)F)C2)c2ccccc12` (centres unmarked) [A15], with at least 80%. With `Cc1nc2c(C3=NOC(c4cc(Cl)cc(Cl)c4)(C(F)(F)F)C3)ccc(C(=O)NC3(C)CSC3)c2o1` (centres unmarked) [A27], the “effect on mortality, feeding behavior, or growth regulation” value (“effect on mortality, feeding behavior” for short) is “little or no effect”. In turn, `Cc1cc(C2=NCC(c3cc(Cl)cc(Cl)c3)(C(F)(F)F)C2)ccc1C(=O)NC1CS(=O)(=O)C1` (centres unmarked) [A46] returned a pest or weed control at 200 ppm of at least 80%. Regarding `Cc1cc(C2=NOC(c3cc(Cl)cc(Cl)c3)(C(F)(F)F)C2O)ccc1C(=O)NC1CSC1` (centres unmarked) [A54], the pest or weed control at 200 ppm was at least 80%. For the compound `O=C(NC1CS(=O)(=O)C1)c1ccc(C2=NOC(c3cc(Cl)cc(Cl)c3)(C(F)(F)F)C2)c2nsnc12` (centres unmarked) [A22], the pest or weed control at 200 ppm is at least 80%. As to `Cc1cc(C2=NOC(c3cc(Cl)cc(Cl)c3)(C(F)(F)F)O2)ccc1C(=O)NC1CSC1` (centres unmarked) [A17], the pest or weed control at 200 ppm is at least 80%.

The compound `O=C(NC1CS(=O)(=O)C1)c1ccc(C2=NOC(c3cc(Cl)cc(Cl)c3)(C(F)(F)F)C2Br)c2ccccc12` (centres unmarked) [A42] returned a pest or weed control at 200 ppm of at least 80%. On the same count and under the same terms, the result for `Cc1cc(C2=NOC(c3cc(Cl)cc(Cl)c3)(C(F)(F)F)C2Br)ccc1C(=O)NC1CSC1` (centres unmarked) [A6] reads at least 80%. As to `CC1(NC(=O)c2cccc3c(C4=NOC(c5cc(Cl)cc(Cl)c5)(C(F)(F)F)C4)cccc23)CSC1` (centres unmarked) [A36], the “effect on mortality, feeding behavior” value is listed as “little or no effect”. As for `Cc1cc(C2=NCC(c3cc(Cl)cc(Cl)c3)(C(F)(F)F)C2)ccc1C(=O)NC1CSC1` (centres unmarked) [A49], the pest or weed control at 200 ppm was at least 80%.

Compound `CC1(NC(=O)c2ccc(C3=NOC(c4cc(Cl)cc(Cl)c4)(C(F)(F)F)C3Br)c3ccccc23)CSC1` (centres unmarked) [A43] registered a pest or weed control at 200 ppm of at least 80%. Still for that read-out and setting: then `Cc1cc(C2=NOC(c3cc(Cl)cc(Cl)c3)(C(F)(F)F)/C2=N/O)ccc1C(=O)NC1CS(=O)(=O)C1` (centres unmarked) [A55], with at least 80%; and `Cc1cc(C2=NCC(c3cc(Cl)cc(Cl)c3)(C(F)(F)F)C2)ccc1C(=O)NC1(C)CSC1` (centres unmarked) [A47], with at least 80%; and `O=C(NC1CSC1)c1ccc(C2=NOC(c3cc(Cl)cc(Cl)c3)(C(F)(F)F)C2)c2ccccc12` (centres unmarked) [A2], with at least 80%. `Cc1cc(C2=NOC(c3cc(Cl)cc(Cl)c3)(C(F)(F)F)C2Cl)ccc1C(=O)NC1C[S+]([O-])C1` (centres unmarked) [A34]: the pest or weed control at 200 ppm is at least 80%. `Cc1cc(C2=NOC(c3cc(Cl)cc(Cl)c3)(C(F)(F)F)C2Cl)ccc1C(=O)NC1CS(=O)(=O)C1` (centres unmarked) [A32]: the pest or weed control at 200 ppm is at least 80%. Consider `Cc1cc(C2=NOC(c3cc(Cl)cc(Cl)c3)(C(F)(F)F)C2F)ccc1C(=O)NC1C[S+]([O-])C1` (centres unmarked) [A62], for which the pest or weed control at 200 ppm is at least 80%.

Compound `Cc1cc(C2=NOC(c3cc(Cl)cc(Cl)c3)(C(F)(F)F)C2Br)ccc1C(=O)NC1(C)CSC1` (centres unmarked) [A5] came in with a pest or weed control at 200 ppm of at least 80%.

Take `Cc1cc(C2=NOC(c3cc(Cl)cc(Cl)c3)(C(F)(F)F)/C2=N/O)ccc1C(=O)NC1(C)CSC1` (centres unmarked) [A56]: the “effect on mortality, feeding behavior” value is on record as “little or no effect”. `O=C(NC1C[S+]([O-])C1)c1ccc(C2=NOC(c3cc(Cl)cc(Cl)c3)(C(F)(F)F)C2Br)c2ccccc12` (centres unmarked) [A44]: the pest or weed control at 200 ppm is at least 80%. For the compound `Cc1cc(C2=NOC(c3cc(Cl)cc(Cl)c3)(C(F)(F)F)C2Br)ccc1C(=O)NC1C[S+]([O-])C1` (centres unmarked) [A7], the pest or weed control at 200 ppm is at least 80%. In the case of `Cc1nc2c(C3=NOC(c4cc(Cl)cc(Cl)c4)(C(F)(F)F)C3)ccc(C(=O)NC3CSC3)c2o1` (centres unmarked) [A29], the “effect on mortality, feeding behavior” value is “little or no effect”. `Cc1cc(C2=NOC(c3cc(Cl)cc(Cl)c3)(C(F)(F)F)C2Cl)ccc1C(=O)NC1(C)CSC1` (centres unmarked) [A33] gave a pest or weed control at 200 ppm of at least 80%. Regarding `Cc1nc2c(C3=NOC(c4cc(Cl)cc(Cl)c4)(C(F)(F)F)C3)ccc(C(=O)NC3C[S+]([O-])C3)c2o1` (centres unmarked) [A28], the “effect on mortality, feeding behavior” value is reported as “little or no effect”.

On to `Cc1cc(C2=NOC(c3cc(Cl)cc(Cl)c3)(C(F)(F)F)C2F)ccc1C(=O)NC1(C)CSC1` (centres unmarked) [A60], for which the pest or weed control at 200 ppm is at least 80%. Regarding `CC1(NC(=O)c2ccc(C3=NOC(c4cc(Cl)cc(Cl)c4)(C(F)(F)F)C3)c3ccccc23)CSC1` (centres unmarked) [A1], the pest or weed control at 200 ppm was at least 80%.

As to `Cc1cc(C2=NN(C)C(c3cc(Cl)cc(Cl)c3)(C(F)(F)F)C2)ccc1C(=O)NC1CSC1` (centres unmarked) [A14], the pest or weed control at 200 ppm is at least 80%. `Cc1cc(C2=NN(C)C(c3cc(Cl)cc(Cl)c3)(C(F)(F)F)C2)ccc1C(=O)NC1(C)CSC1` (centres unmarked) [A12] registered a pest or weed control at 200 ppm of at least 80%. `Cc1cc(C2=NN(C)C(c3cc(Cl)cc(Cl)c3)(C(F)(F)F)C2)ccc1C(=O)NC1C[S+]([O-])C1` (centres unmarked) [A13] displayed a pest or weed control at 200 ppm of at least 80%. For the compound `O=C(NC1C[S+]([O-])C1)c1ccc(C2=NOC(c3cc(Cl)cc(Cl)c3)(C(F)(F)F)C2)c2ccccc12` (centres unmarked) [A16], the pest or weed control at 200 ppm is at least 80%. In turn, `Cc1cc(C2CC(c3cc(Cl)cc(Cl)c3)(C(F)(F)F)ON2C)ccc1C(=O)NC1CS(=O)(=O)C1` (centres unmarked) [A19] gave a pest or weed control at 200 ppm of at least 80%. As to `Cc1cc(C2=NOC(c3cc(Cl)cc(Cl)c3)(C(F)(F)F)C2F)ccc1C(=O)NC1CSC1` (centres unmarked) [A61], the pest or weed control at 200 ppm was at least 80%. `Cc1cc(C2=NOC(c3cc(Cl)cc(Cl)c3)(C(F)(F)F)C2F)ccc1C(=O)NC1CS(=O)(=O)C1` (centres unmarked) [A59] displayed a pest or weed control at 200 ppm of at least 80%. Consider `Cc1nc2c(C3=NOC(c4cc(Cl)cc(Cl)c4)(C(F)(F)F)C3)ccc(C(=O)NC3CS(=O)(=O)C3)c2o1` (centres unmarked) [A26], for which the “effect on mortality, feeding behavior” value is “little or no effect”. For `Cc1cc(C2=NOC(c3cc(Cl)cc(Cl)c3)(C(F)(F)F)C2O)ccc1C(=O)NC1C[S+]([O-])C1` (centres unmarked) [A53], the pest or weed control at 200 ppm was at least 80%.
